Laboratory results as given in ChEMBL document CHEMBL2407072 (Eur J Med Chem, 2013).
pIC50: −log10 of the molar value.

What was measured:
MCF7 = conditions: Homo sapiens, MCF7, 48 h
B16-F10 = test: cells; conditions: Mus musculus, B16-F10, 48 h
Description: Cytotoxicity against mouse B16F10 cells after 48 hrs by CCK8 assay

Carbonic anhydrase 9 = Carbonic anhydrase 9 (Homo sapiens, UniProt Q16790); test: Inhibition of human recombinant CA9 using 4-nitrophenylacetate as substrate preincubated for 15 mins by stopped-flow CO2 hydration assay
[1] = Cytotoxicity against human macrophages assessed as microscopically detectable alteration of normal cell morphology after 48 hrs […]; assay type: cell-based; conditions: macrophage
A549 [2] = test: Induction of apoptosis in human A549 cells assessed as necrotic cells at 2.5 ug/ml after 48 hrs using propidium iodide staining by FACS assay; assay type: functional
A549 [3] = test: Induction of apoptosis in human A549 cells assessed as early apoptotic cells at 10 ug/ml after 48 hrs using propidium iodide staining by FACS assay; assay type: functional
A549 [4] = test: Induction of apoptosis in human A549 cells assessed as late apoptotic cells at 2.5 ug/ml after 48 hrs using propidium iodide staining by FACS assay; assay type: functional
A549 [5] = test: Induction of apoptosis in human A549 cells assessed as early apoptotic cells at 40 ug/ml after 48 hrs using propidium iodide staining by FACS assay; assay type: functional
A549 [6] = test: Induction of apoptosis in human A549 cells assessed as necrotic cells at 10 ug/ml after 48 hrs using propidium iodide staining by FACS assay; assay type: functional
A549 [7] = test: Induction of apoptosis in human A549 cells assessed as viable cells at 10 ug/ml after 48 hrs using propidium iodide staining by FACS assay; assay type: functional; conditions: A549, 48 h, read-out: Activity
A549 [8] = test: Induction of apoptosis in human A549 cells assessed as necrotic cells at 160 ug/ml after 48 hrs using propidium iodide staining by FACS assay; assay type: functional
A549 [9] = test: Induction of apoptosis in human A549 cells assessed as early apoptotic cells at 2.5 ug/ml after 48 hrs using propidium iodide staining by FACS assay; assay type: functional
A549 [10] = test: Induction of apoptosis in human A549 cells assessed as viable cells at 2.5 ug/ml after 48 hrs using propidium iodide staining by FACS assay; assay type: functional; conditions: A549, 48 h, read-out: Activity
A549 [11] = test: Induction of apoptosis in human A549 cells assessed as viable cells at 160 ug/ml after 48 hrs using propidium iodide staining by FACS assay; assay type: functional; conditions: A549, 48 h, read-out: Activity
A549 [12] = test: Induction of apoptosis in human A549 cells assessed as late apoptotic cells at 160 ug/ml after 48 hrs using propidium iodide staining by FACS assay; assay type: functional
A549 [13] = test: Induction of apoptosis in human A549 cells assessed as necrotic cells at 40 ug/ml after 48 hrs using propidium iodide staining by FACS assay; assay type: functional
A549 [14] = test: Induction of apoptosis in human A549 cells assessed as early apoptotic cells at 160 ug/ml after 48 hrs using propidium iodide staining by FACS assay; assay type: functional
A549 [15] = test: Induction of apoptosis in human A549 cells assessed as late apoptotic cells at 40 ug/ml after 48 hrs using propidium iodide staining by FACS assay; assay type: functional
A549 [16] = test: Induction of apoptosis in human A549 cells assessed as late apoptotic cells at 10 ug/ml after 48 hrs using propidium iodide staining by FACS assay; assay type: functional
A549 [17] = test: Induction of apoptosis in human A549 cells assessed as viable cells at 40 ug/ml after 48 hrs using propidium iodide staining by FACS assay; assay type: functional; conditions: A549, 48 h, read-out: Activity

Row | Compound | pIC50 (MCF7) | pIC50 (B16-F10) | pIC50 (Carbonic anhydrase 9) | MCC [1] | further results
1 | O=c1oc2ccccc2c(Cl)c1/C=N/c1ccc(S(=O)(=O)Nc2nccs2)cc1 | 6.80 | 6.52 | 6.86 | – | –
2 | Cc1ccnc(NS(=O)(=O)c2ccc(/N=C/c3c(Cl)c4ccccc4oc3=O)cc2)n1 | 7.51 | 6.64 | 7.08 | – | –
3 | N=C(N)NS(=O)(=O)c1ccc(/N=C/c2c(Cl)c3ccccc3oc2=O)cc1 | 7.24 | 6.74 | 6.73 | 0.62 µmol | –
4 | NS(=O)(=O)c1ccc(/N=C/c2c(Cl)c3ccccc3oc2=O)cc1 | 6.92 | 6.52 | 7.04 | 0.58 µmol | –
5 | Cc1ccc2oc(=O)c(/C=N/c3ccc(S(N)(=O)=O)cc3)c(Cl)c2c1 | 6.57 | 6.44 | 7.07 | 1.2 µmol | –
6 | CC(C)(C)c1cc(C(C)(C)C)c2oc(=O)c(/C=N/c3ccc(S(=O)(=O)NC(=N)N)cc3)c(Cl)c2c1 | 7.74 | 6.60 | 7.13 | – | –
7 | Cc1cc(NS(=O)(=O)c2ccc(/N=C/c3c(Cl)c4cc(C(C)(C)C)cc(C(C)(C)C)c4oc3=O)cc2)no1 | 7.19 | 6.62 | 7.37 | – | –
8 | Cc1ccc2oc(=O)c(/C=N/c3ccc(S(=O)(=O)Nc4nc(C)cc(C)n4)cc3)c(Cl)c2c1 | 7.60 | 6.52 | 7.17 | – | –
9 | Cc1ccc2oc(=O)c(/C=N/c3ccc(S(=O)(=O)Nc4nccc(C)n4)cc3)c(Cl)c2c1 | 7.21 | 6.57 | 7.32 | 0.56 µmol | –
10 | COc1cccc2c1C(=O)c1c(O)c3c(c(O)c1C2=O)C[C@@](O)(C(=O)CO)C[C@@H]3O[C@H]1C[C@H](N)[C@H](O)[C@H](C)O1 [DOXORUBICIN] | – | 7.14 | – | – | –
11 | Cc1cc(C)nc(NS(=O)(=O)c2ccc(/N=C/c3c(Cl)c4ccccc4oc3=O)cc2)n1 | 7.70 | 6.77 | 6.91 | – | Activity (A549 [2]): 4.14%; Activity (A549 [3]): 5.09%; Activity (A549 [4]): 19.6%; Activity (A549 [5]): 6.54%; Activity (A549 [6]): 1.58%; viability at 10 µg/mL (A549 [7]): 81.2%; Activity (A549 [8]): 8.99%; Activity (A549 [9]): 6.8%; viability at 2.5 µg/mL (A549 [10]): 69.4%; viability at 160 µg/mL (A549 [11]): 72.2%; Activity (A549 [12]): 9.62%; Activity (A549 [13]): 2.04%; Activity (A549 [14]): 9.24%; Activity (A549 [15]): 6.28%; Activity (A549 [16]): 12.1%; viability at 40 µg/mL (A549 [17]): 85.1%
12 | Cc1ccnc(NS(=O)(=O)c2ccc(/N=C/c3c(Cl)c4cc(C(C)(C)C)cc(C(C)(C)C)c4oc3=O)cc2)n1 | 7.49 | 6.72 | 7.62 | 0.36 µmol | –
13 | CC(C)(C)c1cc(C(C)(C)C)c2oc(=O)c(/C=N/c3ccc(S(=O)(=O)Nc4nccs4)cc3)c(Cl)c2c1 | 7.92 | 6.80 | 7.29 | – | –
14 | Cc1cc(NS(=O)(=O)c2ccc(/N=C/c3c(Cl)c4ccccc4oc3=O)cc2)no1 | 7.92 | 6.57 | 6.85 | 0.42 µmol | –
15 | CC(C)(C)c1cc(C(C)(C)C)c2oc(=O)c(/C=N/c3ccc(S(N)(=O)=O)cc3)c(Cl)c2c1 | 7.80 | 6.62 | 7.47 | 0.58 µmol | –
16 | Cc1ccc2oc(=O)c(/C=N/c3ccc(S(=O)(=O)NC(=N)N)cc3)c(Cl)c2c1 | 7.17 | 6.62 | 7.30 | – | –
17 | Cc1cc(C)nc(NS(=O)(=O)c2ccc(/N=C/c3c(Cl)c4cc(C(C)(C)C)cc(C(C)(C)C)c4oc3=O)cc2)n1 | 8.06 | 6.66 | 7.05 | 0.73 µmol | –
18 | Cc1ccc2oc(=O)c(/C=N/c3ccc(S(=O)(=O)Nc4cc(C)on4)cc3)c(Cl)c2c1 | 7.80 | 6.60 | 7.28 | – | –
19 | Cc1ccc2oc(=O)c(/C=N/c3ccc(S(=O)(=O)Nc4nccs4)cc3)c(Cl)c2c1 | 7.48 | 6.55 | 7.06 | – | –
